# Assay results as given in patent US8765184B2 (Stanipharm, priority 2009, dated 2014).
# Experiment: Stability of the active substance throughout the process by high performance liquid chromatography
# Format: physicochemical
# Details: HPLC; purity/titre and related substance profile compared with the starting product, both tests
smiles,measurement,value
CO[C@H]1C[C@@H]2CC[C@@H](C)[C@@](O)(O2)C(=O)C(=O)N2CCCC[C@H]2C(=O)O[C@H]([C@H](C)C[C@@H]2CC[C@@H](O)[C@H](OC)C2)CC(=O)[C@H](C)/C=C(\C)[C@@H](O)[C@@H](OC)C(=O)[C@H](C)C[C@H](C)/C=C/C=C/C=C/1C [sirolimus],stability throughout the process,good stability
